In one experiment the test system is S. aureus. The experiment is described as follows: Antibacterial activity (bacterial growth inhibition). In kind it is cell-based, Staphylococcus aureus. Conditions: at 100 μg/mL; for inhibition at 100 µg/mL: Staphylococcus aureus, read-out: Antibacterial Activity (% Inhibition ± SEM).
In experiment [1] the test system is biofilm of S. aureus ATCC 6538. The experiment is described as follows: 96-well plate crystal violet assay for biofilm inhibition. It counts as cell-based, Staphylococcus aureus. Particulars: at 100 μg/mL, biofilm of S. aureus, 24 hours; for inhibition at 100 µg/mL: Staphylococcus aureus, ATCC6538, read-out: Antibiofilm Activity (% Inhibition ± SEM). The method, then:
The quantitative determination of biofilm inhibition was carried out by the crystal violet assay on a sterile 96-well plate with slight modifications. The glycerol stock of S. aureus was revived overnight at 37°C at 80 rpm. The overnight culture was then diluted 100 folds in fresh BHI broth, supplemented with 0.25% glucose. The cell density was adjusted to 1×10^7 and 195μL of the cell suspension was added in 96-well plate. […] Following that, the plate was washed with sterile distilled water in order to decant the non-adherent cells, and media. The plate was then dried at 60°C for 1 hour, and 200 μL of 0.1% (w/v) crystal violet was added to stain biofilm for 20 minutes. The plate was washed again, air dried, and dispensed 30% (v/v) acetic acid in each well to dissolve the biofilm. The inhibition of biofilm formation was analyzed by measuring the absorbance at 595 nm using the microplate reader (Multiskan Sky, Thermo Scientific, USA). The percent inhibition of biofilm formation was calculated via the following formula: 100−ƛTreated−ƛBlank/ƛControl−ƛBlank×100 Whereƛ=absorbance

“Also recorded” adds a separate entry of the source.

The term inhibition denotes the drop in the measured response relative to a control, in per cent.

On to `Cc1ccc2oc(=O)c(/C=N/NC(N)=S)c(Cl)c2c1` [Compound 1, (E)-2-((4-Chloro-6-methyl-2-oxo-2H-chromen-3-yl)methylene)hydrazinecarbothioamide], for which, in the experiment on S. aureus, the “Antibacterial Activity (% Inhibition ± SEM)” value was “inactive”. The “Antibiofilm Activity (% Inhibition ± SEM)” value in experiment [1] was “inactive”.
Take `Cc1ccc2oc(=O)c(/C=N/Nc3nc(-c4ccc(Cl)cc4Cl)cs3)c(Cl)c2c1` [Compound 5, (E)-4-Chloro-3-((2-(4-(2,4-dichlorophenyl)thiazol-2-yl)hydrazono)methyl)-6-methyl-2H-chromen-2-one]: the inhibition at 100 µg/mL with S. aureus was determined as 36 ± 8.77%. For the same compound, the “Antibiofilm Activity (% Inhibition ± SEM)” value in experiment [1] is recorded as “No Inhibition”.
Consider `Cc1ccc2oc(=O)c(/C=N/Nc3nc(-c4ccc(Br)cc4)cs3)c(Cl)c2c1` [Compound 6, (E)-3-((2-(4-(4-Bromophenyl)thiazol-2-yl)hydrazono)methyl)-4-chloro-6-methyl-2H-chromen-2-one], for which the inhibition at 100 µg/mL in the experiment on S. aureus is 72 ± 7.22%; in experiment [1], 61 ± 4.05%. Further, in experiment [1], the “Antibiofilm Activity (% Inhibition ± SEM)” value is “induced biofilm inhibition; also recorded: dual anti-bacterial and anti-biofilm effect”.
On to `Cc1ccc2oc(=O)c(/C=N/Nc3nc(-c4ccc(Cl)cc4)cs3)c(Cl)c2c1` [Compound 7, (E)-4-Chloro-3-((2-(4-(4-chlorophenyl)thiazol-2-yl)hydrazono)methyl)-6-methyl-2H-chromen-2-one], for which the inhibition at 100 µg/mL with S. aureus worked out at 41 ± 11.1%. The “Antibiofilm Activity (% Inhibition ± SEM)” value in experiment [1] is given as “No Inhibition”.
On to `COc1ccc(-c2csc(N/N=C/c3c(Cl)c4cc(C)ccc4oc3=O)n2)cc1` [Compound 8, (E)-4-Chloro-3-((2-(4-(4-methoxyphenyl)thiazol-2-yl)hydrazono)methyl)-6-methyl-2H-chromen-2-one], for which, in the experiment with S. aureus, the inhibition at 100 µg/mL is 52 ± 5.08%. In experiment [1], the inhibition at 100 µg/mL turned out to be 66 ± 5.11%; the “Antibiofilm Activity (% Inhibition ± SEM)” value was “induced biofilm inhibition; also recorded: dual anti-bacterial and anti-biofilm effect”.
For `C/C(=N\NC(N)=S)c1cc2ccccc2oc1=O` [Compound 9, (E)-2-(1-(2-Oxo-2H-chromen-3-yl)ethylidene)hydrazinecarbothioamide], the inhibition at 100 µg/mL in the experiment on S. aureus turned out to be 55 ± 5.43%. Moreover, in experiment [1], the inhibition at 100 µg/mL was 22% and the “Antibiofilm Activity (% Inhibition ± SEM)” value is listed as “No Inhibition”.
On to `C/C(=N\Nc1nc(-c2ccc(Cl)cc2)cs1)c1cc2ccccc2oc1=O` [Compound 11, (E)-3-(1-(2-(4-(4-Chlorophenyl)thiazol-2-yl)hydrazono)ethyl)-2H-chromen-2-one], for which the figures for the inhibition at 100 µg/mL (with S. aureus; in experiment [1]) were 88 ± 4.32% and 70 ± 7.09%, respectively. The “Antibiofilm Activity (% Inhibition ± SEM)” value in experiment [1] is “induced biofilm inhibition; also recorded: dual anti-bacterial and anti-biofilm effect”.
For `C/C(=N\Nc1nc(-c2ccc(Cl)c(Cl)c2)cs1)c1cc2ccccc2oc1=O` [Compound 12, (E)-3-(1-(2-(4-(3,4-Dichlorophenyl)thiazol-2-yl)hydrazono)ethyl)-2H-chromen-2-one], the “Antibiofilm Activity (% Inhibition ± SEM)” value in experiment [1] is given as “No Inhibition”.
For the compound `C/C(=N\Nc1nc(-c2cccc([N+](=O)[O-])c2)cs1)c1cc2ccccc2oc1=O` [Compound 13, (E)-3-(1-(2-(4-(3-Nitrophenyl)thiazol-2-yl) hydrazono)ethyl)-2H-chromen-2-one], the “Antibacterial Activity (% Inhibition ± SEM)” value in the experiment on S. aureus is on record as “No Inhibition”. Besides, the “Antibiofilm Activity (% Inhibition ± SEM)” value in experiment [1] is listed as “No Inhibition”.
For `C/C(=N\Nc1nc(-c2ccc(C#N)cc2)cs1)c1cc2ccccc2oc1=O` [Compound 14, (E)-4-(2-(2-(1-(2-Oxo-2H-chromen-3-yl)ethylidene)hydrazinyl)thiazol-4-yl)benzonitrile], in the experiment on S. aureus, the inhibition at 100 µg/mL turned out to be 61 ± 9.33%. Moreover, in experiment [1], the inhibition at 100 µg/mL was 68 ± 6.63%; the “Antibiofilm Activity (% Inhibition ± SEM)” value was “induced biofilm inhibition; also recorded: dual anti-bacterial and anti-biofilm effect”.
As to `C/C(=N\Nc1nc(-c2ccccc2O)cs1)c1cc2ccccc2oc1=O` [Compound 15, (E)-3-(1-(2-(4-(2-Hydroxyphenyl)thiazol-2-yl)hydrazono)ethyl)-2H-chromen-2-one], the inhibition at 100 µg/mL in the experiment on S. aureus was 73 ± 7.16%. Besides, in experiment [1], the inhibition at 100 µg/mL turned out to be 34 ± 5.11% and the “Antibiofilm Activity (% Inhibition ± SEM)” value was “induced biofilm inhibition”.
For `O=c1oc2ccccc2cc1-c1csc(N/N=C/c2ccccc2)n1` [Compound 16, (E)-3-(2-(2-Benzylidenehydrazinyl)thiazol-4-yl)-2H-chromen-2-one], the “Antibiofilm Activity (% Inhibition ± SEM)” value in experiment [1] was “No inhibition”.
As for `O=c1oc2ccccc2cc1-c1csc(N/N=C/c2cccc(Cl)c2)n1` [Compound 18, (E)-3-(2-(2-(3-Chlorobenzylidene)hydrazinyl)thiazol-4-yl)-2H-chromen-2-one], the inhibition at 100 µg/mL amounted to 32 ± 8.97% in the experiment with S. aureus and 25 ± 5.26% in experiment [1].
As for `O=c1oc2ccccc2cc1-c1csc(N/N=C/c2ccc(Cl)cc2)n1` [Compound 19, (E)-3-(2-(2-(4-Chlorobenzylidene)hydrazinyl)thiazol-4-yl)-2H-chromen-2-one], the “Antibacterial Activity (% Inhibition ± SEM)” value in the experiment with S. aureus is on record as “No Inhibition”. In experiment [1], the inhibition at 100 µg/mL was found to be 37 ± 6.98%.
For the compound `O=c1oc2ccccc2cc1-c1csc(N/N=C/c2ccc(Cl)cc2Cl)n1` [Compound 20, (E)-3-(2-(2-(2,4-Dichlorobenzylidene)hydrazinyl)thiazol-4-yl)-2H-chromen-2-one], the “Antibiofilm Activity (% Inhibition ± SEM)” value in experiment [1] was “No Inhibition”.
For the compound `O=c1oc2ccccc2cc1-c1csc(N/N=C/c2ccccc2[N+](=O)[O-])n1` [Compound 21, (E)-3-(2-(2-(2-Nitrobenzylidene)hydrazinyl)thiazol-4-yl)-2H-chromen-2-one], the “Antibiofilm Activity (% Inhibition ± SEM)” value in experiment [1] is reported as “No Inhibition”.
